Numbers after ± are expanded uncertainties.
Key:
[1] = refractive index (Na D-line) (dimensionless); details: 101.33 kPa, Liquid, Standard Abbe refractometry
[2] = for viscosity / mass density: 101.33 kPa, Liquid; for viscosity: Surface Light Scattering; for mass density: Vibrating tube method; for surface tension liquid-gas: Pendant drop shape

CCn1cc[n+](C)c1.N#C[B-](C#N)(C#N)C#N [1-ethyl-3-methylimidazolium tetracyanoborate]
refractive index ([1]; 283.15 K): 1.4533 ± 0.0012 | refractive index ([1]; 293.15 K): 1.4499 ± 0.0012 | refractive index ([1]; 303.15 K): 1.4465 ± 0.0012 | refractive index ([1]; 313.15 K): 1.4432 ± 0.0012 | viscosity ([2]; 283.15 K): 37.06 ± 1.2 mPa·s | mass density ([2]; 283.15 K): 1048.33 ± 0.95 kg/m3 | viscosity ([2]; 288.15 K): 27.75 ± 0.93 mPa·s | mass density ([2]; 288.15 K): 1044.31 ± 0.95 kg/m3 | viscosity ([2]; 293.15 K): 21.79 ± 0.71 mPa·s | mass density ([2]; 293.15 K): 1040.31 ± 0.94 kg/m3 | surface tension liquid-gas ([2]; 297.04 K): 47.09 ± 1.1 mN/m | mass density ([2]; 298.15 K): 1036.34 ± 0.93 kg/m3 | viscosity ([2]; 303.15 K): 14.65 ± 0.48 mPa·s | mass density ([2]; 303.15 K): 1032.4 ± 0.92 kg/m3 | mass density ([2]; 308.15 K): 1028.48 ± 0.92 kg/m3 | surface tension liquid-gas ([2]; 313.15 K): 43.29 ± 1 mN/m | viscosity ([2]; 313.15 K): 10.09 ± 0.33 mPa·s | mass density ([2]; 313.15 K): 1024.59 ± 0.91 kg/m3 | mass density ([2]; 318.15 K): 1020.72 ± 0.9 kg/m3 | surface tension liquid-gas ([2]; 323.15 K): 41.6 ± 1 mN/m | viscosity ([2]; 323.15 K): 7.61 ± 0.24 mPa·s | mass density ([2]; 323.15 K): 1016.87 ± 0.89 kg/m3 | mass density ([2]; 328.15 K): 1013.06 ± 0.89 kg/m3 | surface tension liquid-gas ([2]; 333.15 K): 39.53 ± 0.95 mN/m | viscosity ([2]; 333.15 K): 5.77 ± 0.18 mPa·s | mass density ([2]; 333.15 K): 1009.26 ± 0.88 kg/m3 | mass density ([2]; 338.15 K): 1005.49 ± 0.87 kg/m3 | surface tension liquid-gas ([2]; 343.15 K): 38.33 ± 0.92 mN/m | viscosity ([2]; 343.15 K): 4.67 ± 0.15 mPa·s | mass density ([2]; 343.15 K): 1001.74 ± 0.87 kg/m3 | mass density ([2]; 348.15 K): 998.01 ± 0.86 kg/m3 | surface tension liquid-gas ([2]; 353.15 K): 36.52 ± 0.88 mN/m | viscosity ([2]; 353.15 K): 3.7 ± 0.12 mPa·s | mass density ([2]; 353.15 K): 994.28 ± 0.86 kg/m3 | mass density ([2]; 358.15 K): 990.59 ± 0.85 kg/m3 | surface tension liquid-gas ([2]; 363.15 K): 35.8 ± 0.86 mN/m | viscosity ([2]; 363.15 K): 3.16 ± 0.1 mPa·s | mass density ([2]; 363.15 K): 986.92 ± 0.85 kg/m3
